Article PMC4849654, “A High-Throughput Cell-Based Screen Identified a 2-[(E)-2-Phenylvinyl]-8-Quinolinol Core Structure That Activates p53” (PLoS ONE, 2016)

Key:
[1] = biological target: T1, p53 (Homo sapiens, UniProt P04637); experiment: Surface plasmon resonance (Biacore) binding to p53; conditions: SPR, recombinant p53 amine linked to Biacore chip, compound 1 to 25 μM
T1 construct: purchased R&D systems
Description: (§1) Free reactive amines were then blocked with ethanolamine.

[2] = biological target: T2, E6AP (Homo sapiens, UniProt Q05086); experiment: Surface plasmon resonance binding to E6AP; conditions: SPR, data not shown
T2 sequence (Q05086 1-875): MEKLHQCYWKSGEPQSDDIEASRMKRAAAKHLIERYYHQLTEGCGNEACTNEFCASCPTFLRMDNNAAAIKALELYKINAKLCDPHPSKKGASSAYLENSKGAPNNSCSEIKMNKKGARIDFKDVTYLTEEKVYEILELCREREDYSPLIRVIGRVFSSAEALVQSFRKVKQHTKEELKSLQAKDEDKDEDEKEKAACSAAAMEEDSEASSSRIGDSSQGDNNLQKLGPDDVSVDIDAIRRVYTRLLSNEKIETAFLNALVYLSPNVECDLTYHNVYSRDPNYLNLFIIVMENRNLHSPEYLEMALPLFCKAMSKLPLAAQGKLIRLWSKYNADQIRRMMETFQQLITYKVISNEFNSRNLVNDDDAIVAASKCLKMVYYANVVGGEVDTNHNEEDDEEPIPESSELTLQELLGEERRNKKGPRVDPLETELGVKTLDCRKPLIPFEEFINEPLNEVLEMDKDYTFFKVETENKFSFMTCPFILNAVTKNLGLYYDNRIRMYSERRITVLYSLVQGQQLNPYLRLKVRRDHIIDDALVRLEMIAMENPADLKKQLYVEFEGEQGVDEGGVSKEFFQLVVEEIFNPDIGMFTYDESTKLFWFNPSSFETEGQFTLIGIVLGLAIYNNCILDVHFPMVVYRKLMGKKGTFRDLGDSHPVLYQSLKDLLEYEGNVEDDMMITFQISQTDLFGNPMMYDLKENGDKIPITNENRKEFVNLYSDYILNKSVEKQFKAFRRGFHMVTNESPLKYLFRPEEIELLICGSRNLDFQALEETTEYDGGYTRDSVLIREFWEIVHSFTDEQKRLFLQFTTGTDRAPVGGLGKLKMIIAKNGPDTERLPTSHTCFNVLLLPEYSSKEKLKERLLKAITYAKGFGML
Description: as §1

[3] = biological target: T3, p53 (Homo sapiens, UniProt P04637, R273C); experiment: p53 nuclear localization by immunofluorescence; format: cell-based; conditions: C33a cells, 30 μM, 8 hrs
T3 construct: endogenous in cells; host or cells: C33a
Experimental: C33a cells were plated into chamber slides and treated with 30 μM of compounds 3 or, 4 for 4, or 8 hours. As a control, 30 μM cisplatin was used. The cells were fixed with 2.5% formaldehyde for 30 minutes, followed by permeabilization with 0.01% Triton X100 for 30 minutes. Cells were blocked with 5% goat serum for 30 minutes and stained overnight with anti-p53 (Santa Cruz, antibody FL-303) or anti-phospho-H2A.X (cell signaling) in 1% FCS in PBS at 4°. The following day, the cells were washed with PBS and incubated for 45 minutes with anti-rabbit-FITC and DAPI in 1% FCS in PBS. The cells were washed and mounted with ProLong Gold.

[4] = system: p21, BAX and FAS; experiment: p53 target gene expression (p21, BAX, FAS) by qRT-PCR; format: cell-based; conditions: HeLa cells, 8h
Description: RNA from C33a and HeLa was isolated by Trizol and reverse transcribed using the first strand synthesis kit from NEB. Primers for p53, GAPDH and PUMA were used for quantitative real-time PCR (qRT-PCR). Primer sequences include: PUMA (forward primer: CTCAACGCACAGTACGAG and reverse primer: […]), FAS (forward primer: TCTGCCATAAGCCCTGT and reverse primer: GTCTGTGTACTCCTTCCCT), p21 (forward primer: […] and reverse primer: […]), and BAX (forward primer: […] and reverse primer: […]). ΔΔCt values were determined for PUMA using GAPDH to normalize data. Bio-rad SYBR green was used for the amplification and detection of the PCR products on an iCycler (Bio-rad).

[5] = system: PUMA promoter; experiment: ChIP-qPCR of p53 binding to the PUMA promoter; format: cell-based; conditions: 8 hrs
Experimental: Cells treated with the indicated compounds for 8 hrs, harvested and ChIP was carried using a Chromatin Immunoprecipitation Assay Kit (EMD Millipore). p53-DNA complexes were immunoprecipitated using a mouse monoclonal DO-1 antibody (Santa Cruz) and incubated overnight at 4°C. qPCR amplifications was performed using the primer sequences Puma forward 5’- […], reverse 5’- […].

[6] = system: HeLa cells; experiment: Cell viability (Cell Titer Glo), HeLa; format: cell-based
Experimental: (§2) For the viability assays, 20,000 C33a, HeLa, or siHA cells were plated in white 96 well flat bottom plates. The cells were treated with compounds at concentrations from 0.5 to 30 μM for 48 hrs. After incubation, Cell Titer Glo (Promega) was added to the cells and luminescence read in a Tecan II plate reader. For annexin V and PI staining, 500,000 C33a cells were treated with inhibitor for 24 hrs. The cells were stained with Annexin V-FITC and PI according to eBioscience manufacturer’s instructions and analyzed by flow cytometry.

[7] = system: C33a cells; experiment: Annexin V/PI staining by flow cytometry; format: cell-based
Experimental: as §2

[8] = system: proteasome chymotrypsin-like activity; experiment: Proteasome-Glo chymotrypsin-like activity; format: cell-based; conditions: C33a cells, 2 hrs, 10 μM or 30 μM
[9] = biological target: T4, p73 (Homo sapiens, UniProt O15350); experiment: p73 nuclear accumulation by Western analysis; format: cell-based; conditions: mutHCT116 cells, 6h
T4 construct: endogenous in cells; host or cells: HCT116 (p53-null mutHCT116 and wtHCT116)
T4 sequence (O15350 1-636): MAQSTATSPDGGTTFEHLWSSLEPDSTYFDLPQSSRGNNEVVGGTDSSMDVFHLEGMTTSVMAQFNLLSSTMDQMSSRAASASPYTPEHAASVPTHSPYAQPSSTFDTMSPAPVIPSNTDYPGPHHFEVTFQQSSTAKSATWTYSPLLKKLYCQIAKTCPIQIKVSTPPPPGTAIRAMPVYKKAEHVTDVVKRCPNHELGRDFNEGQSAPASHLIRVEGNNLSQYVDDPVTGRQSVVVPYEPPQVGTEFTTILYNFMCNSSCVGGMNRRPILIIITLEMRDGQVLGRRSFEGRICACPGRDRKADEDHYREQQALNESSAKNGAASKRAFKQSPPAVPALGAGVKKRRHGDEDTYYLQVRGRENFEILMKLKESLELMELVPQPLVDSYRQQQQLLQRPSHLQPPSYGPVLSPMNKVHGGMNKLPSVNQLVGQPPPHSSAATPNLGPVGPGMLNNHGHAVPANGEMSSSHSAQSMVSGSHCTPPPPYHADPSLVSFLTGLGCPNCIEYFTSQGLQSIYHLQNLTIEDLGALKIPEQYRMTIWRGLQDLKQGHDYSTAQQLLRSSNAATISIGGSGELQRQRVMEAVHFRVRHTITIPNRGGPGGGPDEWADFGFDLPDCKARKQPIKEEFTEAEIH

In the case of `COc1ccc(/C=C/c2ccc3cccc(O)c3n2)cc1OC` [compound 4], the Kd [1] is reported as 200 ± 52 nM, the “affinity for E6AP” value [2] is reported as “did not have detectable affinity” and the “p53 nuclear accumulation, % of cell nuclei” value [3] is reported as 79.5±12.7 % of cell nuclei. For the same compound, the “expression of p21, BAX and FAS” value [4] was “induced expression”, the “p53 binding to the PUMA promoter compared to controls” value ([5]; C33a cells) was 38.9±2.4 fold and the “p53 binding to the PUMA promoter compared to controls” value ([5]; HeLa cells) was 31.3±8.7 fold. The “cell viability (Fig 5D)” value ([6]; HeLa) was “decreased viability”, the IC50 ([6]; HeLa cells, 48 hrs, Cell Titer Glo) was 4500 nM and the “cell viability at 30 μM” value ([6]; HeLa, 30 μM, 48h) was “decreased viability”. The “apoptotic and necrotic cells” value [7] was “increased both the number of apoptotic and necrotic cells”, the chymotrypsin-like proteasome activity [8] was “did not significantly reduce” and the p73 nuclear accumulation [9] was “did not increase p73 nuclear accumulation”.
